For test [1], the target named is T1, human recombinant adrenergic α1D receptor (Homo sapiens, UniProt P25100).
T1 construct: expressed in transfected cells; host or cells: HEK-293 cells
T1 sequence (P25100 1-572): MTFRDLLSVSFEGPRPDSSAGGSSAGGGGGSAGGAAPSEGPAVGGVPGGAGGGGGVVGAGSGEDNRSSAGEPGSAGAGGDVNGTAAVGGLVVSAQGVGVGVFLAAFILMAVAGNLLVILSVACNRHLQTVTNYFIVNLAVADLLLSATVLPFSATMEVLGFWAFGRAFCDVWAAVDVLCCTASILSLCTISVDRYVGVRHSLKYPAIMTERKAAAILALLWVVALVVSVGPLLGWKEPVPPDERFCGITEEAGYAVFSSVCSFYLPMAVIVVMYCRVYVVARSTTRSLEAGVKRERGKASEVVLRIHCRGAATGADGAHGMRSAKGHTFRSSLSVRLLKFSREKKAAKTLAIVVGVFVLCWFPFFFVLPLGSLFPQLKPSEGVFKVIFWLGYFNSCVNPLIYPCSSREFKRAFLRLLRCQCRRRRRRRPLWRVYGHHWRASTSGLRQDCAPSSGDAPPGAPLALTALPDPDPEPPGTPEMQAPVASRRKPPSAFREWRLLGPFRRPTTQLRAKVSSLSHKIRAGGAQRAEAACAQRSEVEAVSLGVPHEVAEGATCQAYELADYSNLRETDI
As to the kind of experiment: Adrenergic alpha1D radioligand binding ([3H]Prozosin). The conditions noted are these: compound at 1 μM; read-out: Adrenergic (1 μM) α1D, percent inhibition of specific binding. The procedure:
To evaluate in radioligand binding assays the activity of compounds of the invention, human recombinant adrenergic α1D receptor expressed in human embryonic kidney (HEK-293) cells (Kenny, B. A. et al. Br. J. Pharmacol. 115(6):981, 1995) in a 50 mM Tris-HCl buffer, pH 7.4, was used. Compounds of invention were incubated with 0.6 nM [^3H]Prozosin for 60 min. at 25° C. Non-specific binding was estimated in the presence of 10 μM phentolamine. Receptor proteins were filtered and washed, the filters were then counted to determine [^3H]Prozosin specifically bound. Compounds were screened at 1 μM or lower, using 1% DMSO as vehicle. Biochemical assay results are presented as the percent inhibition of specific binding in Table 5.

Test [2] concerns the target T2, human recombinant adrenergic α2B receptor (Homo sapiens, UniProt P18089).
T2 construct: expressed in transfected cells; host or cells: CHO-K1 cells
T2 sequence (P18089 1-450): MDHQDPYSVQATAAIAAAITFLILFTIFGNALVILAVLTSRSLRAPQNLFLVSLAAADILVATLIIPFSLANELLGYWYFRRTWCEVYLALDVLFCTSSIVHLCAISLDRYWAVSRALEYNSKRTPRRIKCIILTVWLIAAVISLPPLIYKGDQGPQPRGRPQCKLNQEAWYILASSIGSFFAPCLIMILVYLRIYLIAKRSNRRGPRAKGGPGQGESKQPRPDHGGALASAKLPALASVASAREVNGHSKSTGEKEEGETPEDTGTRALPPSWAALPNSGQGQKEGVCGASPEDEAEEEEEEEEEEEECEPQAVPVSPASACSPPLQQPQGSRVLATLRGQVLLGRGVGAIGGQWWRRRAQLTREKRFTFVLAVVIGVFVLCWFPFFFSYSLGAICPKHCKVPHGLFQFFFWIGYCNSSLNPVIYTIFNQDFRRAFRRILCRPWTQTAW
As to the kind of experiment: Adrenergic alpha2B radioligand binding ([3H]Rauwolscine). To be noted: compound at 1 μM; read-out: Adrenergic (1 μM) α2B, percent inhibition of specific binding. How it is done:
To evaluate in radioligand binding assays the activity of compounds of the invention, human recombinant adrenergic α2B receptor expressed in Chinese hamster ovary (CHO-K1) cells (Uhlen S et al. Eur J. Pharmacol. 343(1):93, 1998) in a modified Tris-HCl buffer (50 mM Tris-HCl, pH 7.4, 12.5 mM MgCl2, 1 mM EDTA, 0.2% BSA) was used. Compounds of the invention were incubated with 2.5 nM [^3H]Rauwolscine for 60 min. at 25° C. Non-specific binding was estimated in the presence of 10 μM Prozosin. Receptor proteins were filtered and washed, the filters were then counted to determine [^3H]Rauwolscine specifically bound. Compounds were screened at 1 μM or lower, using 1% DMSO as vehicle. Biochemical assay results are presented as the percent inhibition of specific binding in Table 5.

The target of test [3] is T3, human recombinant serotonin (5-Hydroxytryptamine) 5-HT2C receptor (Homo sapiens, UniProt P28335).
T3 construct: expressed in transfected cells; host or cells: CHO-K1 cells
T3 sequence (P28335 33-458): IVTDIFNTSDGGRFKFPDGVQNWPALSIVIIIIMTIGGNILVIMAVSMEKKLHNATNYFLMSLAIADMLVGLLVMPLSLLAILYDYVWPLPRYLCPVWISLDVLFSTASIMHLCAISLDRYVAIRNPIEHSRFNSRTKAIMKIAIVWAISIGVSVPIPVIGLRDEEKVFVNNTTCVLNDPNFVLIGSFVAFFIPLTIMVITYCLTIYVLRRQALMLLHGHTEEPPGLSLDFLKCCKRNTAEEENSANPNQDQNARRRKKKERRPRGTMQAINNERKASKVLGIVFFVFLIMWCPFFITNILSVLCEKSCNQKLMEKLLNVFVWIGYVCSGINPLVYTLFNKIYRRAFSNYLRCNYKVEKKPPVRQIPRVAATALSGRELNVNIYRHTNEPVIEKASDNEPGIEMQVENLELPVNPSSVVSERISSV
As to the kind of experiment: Serotonin 5-HT2C radioligand binding ([3H]Mesulergine). To be noted: compound at 1 μM; read-out: Serotonin (1 μM) 5-HT2C, percent inhibition of specific binding. An outline of the steps:
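Membranes from CHO-K1 cells expressing human 5-HT2C, incubated with 1 nM [3H]mesulergine for 60 min at 25 °C in 50 mM Tris-HCl pH 7.4 with ascorbic acid and pargyline.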

17 molecules from patent US9481676B2, “Azepino[4,5-B]indoles and methods of use” (Medivation Technologies, Inc., priority 2008, dated 2016) can be followed below.

Regarding `CN1CCc2c(n(CC(=O)OCc3ccccc3)c3ccc(Cl)cc23)CC1` [Compound No. 75, Benzyl-2-(9-chloro-2,3,4,5-tetrahydro-3-methylazepino[4,5-b]indol-6(1H)-yl)acetate], the inhibition (in general, the relative decrease from the control value, in per cent) at 1 µM in test [1] was found to be 7%; in test [2], 21%; in test [3], 13%.

As to `CN1CCc2c(n(CCc3ccccc3)c3ccc(Cl)cc23)CC1` [Compound No. 56, 9-chloro-1,2,3,4,5,6-hexahydro-3-methyl-6-phenethylazepino[4,5-b]indole], the inhibition at 1 µM turned out to be 83% in test [1], 91% in test [2] and 95% in test [3].

With `Cc1ccc2c(c1)c1c(n2CC(=O)NC2CCCCC2)CCN(C)CC1` [Compound No. 22, N-cyclohexyl-2-(2,3,4,5-tetrahydro-3,9-dimethylazepino[4,5-b]indol-6(1H)-yl)acetamide], the results for the inhibition at 1 µM in test [1], in test [2] and in test [3] were 1%, -7% and -4%, respectively.

As to `C/C(=C\n1c2c(c3cc(C)ccc31)CCN(C)CC2)c1ccc(Cl)cc1` [Compound No. 33, 6-((E)-2-(4-chlorophenyl)prop-1-enyl)-1,2,3,4,5,6-hexahydro-3,9-dimethylazepino[4,5-b]indole], the figures for the inhibition at 1 µM in test [1], in test [2] and in test [3] were 99%, 103% and 86%, respectively.

Turning to `Cc1ccc2c(c1)c1c(n2/C=C/c2ccc(Cl)cc2)CCN(C)CC1` [Compound No. 235, (E)-6-(4-chlorostyryl)-3,9-dimethyl-1,2,3,4,5,6-hexahydroazepino[4,5-b]indole], the results for the inhibition at 1 µM in test [1], in test [2] and in test [3] were 95%, 98% and 98%, respectively.

`Cc1ccc2c(c1)c1c(n2CC(O)c2cccnc2)CCN(C)CC1` (stereo not drawn) [Compound No. 19, 2-(2,3,4,5-tetrahydro-3,9-dimethylazepino[4,5-b]indol-6(1H)-yl)-1-(pyridin-3-yl)ethanol]: the inhibition at 1 µM in test [1] was found to be 54%; in test [2], 90%; in test [3], 52%.

As for `COc1ccc(/C=C/n2c3c(c4cc(C)ccc42)CCN(C)CC3)c(F)c1` [Compound No. 230, (E)-6-(2-fluoro-4-methoxystyryl)-3,9-dimethyl-1,2,3,4,5,6-hexahydroazepino[4,5-b]indole], the inhibition at 1 µM in test [1] is 97%; in test [2], 99%; in test [3] it was 96%.

With `CN1CCc2c(n(CC(O)c3ccncc3)c3ccc(Cl)cc23)CC1` (stereo not drawn) [Compound No. 42, 2-(9-chloro-2,3,4,5-tetrahydro-3-methylazepino[4,5-b]indol-6(1H)-yl)-1-(pyridin-4-yl)ethanol], the values for the inhibition at 1 µM in test [1], in test [2] and in test [3] were 73%, 107% and 101%, respectively.

As for `CN1CCc2c(n(CCc3ccccc3Cl)c3ccc(Cl)cc23)CC1` [Compound No. 29, 6-(2-chlorophenethyl)-9-chloro-1,2,3,4,5,6-hexahydro-3-methylazepino[4,5-b]indole], the inhibition at 1 µM was 71% in test [1], 101% in test [2] and 101% in test [3].

As to `COc1ccc(C(O)Cn2c3c(c4cc(Cl)ccc42)CCN(C)CC3)cc1F` (stereo not drawn) [Compound No. 67, 2-(9-chloro-2,3,4,5-tetrahydro-3-methylazepino[4,5-b]indol-6(1H)-yl)-1-(3-fluoro-4-methoxyphenyl) ethanol], the inhibition at 1 µM in test [1] amounted to 90%; in test [2] it was 99%; in test [3], 93%.

Consider `CN1CCc2c(n(C#Cc3ccc(F)cc3)c3ccc(Cl)cc23)CC1` [Compound No. 281, 9-chloro-6-((4-fluorophenyl)ethynyl)-3-methyl-1,2,3,4,5,6-hexahydroazepino[4,5-b]indole], for which the figures for the inhibition at 1 µM in test [1], in test [2] and in test [3] were 75%, 99% and 98%, respectively.

For `COc1ccc(C(O)Cn2c3c(c4cc(C)ccc42)CCN(C)CC3)cc1F` (stereo not drawn) [Compound No. 68, 1-(3-fluoro-4-methoxyphenyl)-2-(2,3,4,5-tetrahydro-3,9-dimethylazepino[4,5-b]indol-6(1H)-yl)ethanol], the inhibition at 1 µM stood at 93% in test [1], 100% in test [2] and 95% in test [3].

For `Cc1ccc(CCn2c3c(c4cc(Cl)ccc42)CCN(C)CC3)cc1` [Compound No. 46, 9-chloro-3-methyl-6-(4-methylphenethyl)-1,2,3,4,5,6-hexahydroazepino[4,5-b]indole], the inhibition at 1 µM in test [1] is 88%; in test [2], 107%; in test [3], 98%.

On to `C/C(=C\n1c2c(c3cc(C)ccc31)CCN(C)CC2)c1ccc(Cl)cc1Cl` [Compound No. 238, (E)-6-(2-(2,4-dichlorophenyl)prop-1-enyl)-3,9-dimethyl-1,2,3,4,5,6-hexahydroazepino[4,5-b]indole], for which the inhibition at 1 µM in test [1] was 30%; in test [2], 103%; in test [3], 100%.

In the case of `CN1CCc2c(n(/C=C/c3ccc(F)cc3)c3ccc(Cl)cc23)CC1` [Compound No. 234, (E)-9-chloro-6-(4-fluorostyryl)-3-methyl-1,2,3,4,5,6-hexahydroazepino[4,5-b]indole], the inhibition at 1 µM amounted to 97% in test [1], 100% in test [2] and 98% in test [3].

On to `Cc1ccc2c(c1)c1c(n2CCc2ccc(Cl)cc2)CCN(C)CC1` [Compound No. 28, 6-(4-chlorophenethyl)-1,2,3,4,5,6-hexahydro-3,9-dimethylazepino[4,5-b]indole], for which the inhibition at 1 µM in test [1] was 94%; in test [2] it was 103%; in test [3], 94%.

`CN1CCc2c(n(CCc3ccc(C(=O)O)nc3)c3ccc(Cl)cc23)CC1` [Compound No. 21, 5-(2-(9-chloro-2,3,4,5-tetrahydro-3-methylazepino[4,5-b]indol-6(1H)-yl)ethyl)pyridine-2-carboxylic acid]: the inhibition at 1 µM was found to be 17% in test [1], 6% in test [2] and 29% in test [3].
